Values after ≈ are worked out from the molar mass of the structure shown. Where two headings read alike, the source gives them in different places.
Assay: Phase solubility, shake-flask method with UV spectrophotometry
Type: physicochemical
Conditions: for solubility at 3 days: aqueous buffer (shake-flask)
Method: The solubility of UMF was measured in pure buffers pH 2.0 and pH 7.4, with the additions of 1.5 w/v%, 4.0 w/v%, 5.5 w/v%, 7.0 w/v% of F-127, and in all these solutions in the presence of 10% and 20% ethanol at 310.15 ± 0.1 K by the standard shake-flask method. The concentrations of F-127 were chosen purposely to avoid the formation of a gel (at approximately 20% w/w in water at 310.15 K). Since the aim of the study was to evaluate the possibility of preparation of pharmaceutical products based on UMF, the experimental temperature was selected to be as very close to the normal temperature of a healthy human. […] The experimental results are presented as an average of at least three replicated experiments.

In the case of CCOC(=O)c1c(CSc2ccccc2)n(C)c2cc(Br)c(O)c(CN(C)C)c12 [UMF, 6-bromo-4-dimethylaminomethyl-5-hydroxy-1-methyl-2-phenylthiomethyl indole-3-carboxylic acid ethyl ester], the “Solubility increase by ethanol vs buffer pH 7.4” value (10% EtOH) is reported as 1.13 fold, the “Solubility increase by ethanol vs buffer pH 7.4” value (20% EtOH) is reported as 1.8 fold and the “Greater solubility in acidic medium (pH 2.0) as compared to alkaline one (pH 7.4)” value (310.15 K) is reported as 44.4 fold. For the same compound, the solubility at 3 days (37 °C, pH 2, aqueous buffer, thermodynamic from solid, Solubility SUMF·103, buffer pH 2.0, 0 w/v% F-127, 310.15 K, value is S×10^3, heading: Solubility SUMF·103) was 710 ± 20 µM (≈ 339 µg/mL), the solubility at 3 days (37 °C, pH 2, aqueous buffer, thermodynamic from solid, pH 2.0, 310.15 K, read-out: Solubility in pure buffer) was 711 µM (≈ 339 µg/mL) and the solubility at 3 days (37 °C, pH 2, aqueous with cosolvent or surfactant or cyclodextrin, thermodynamic from solid, Solubility SUMF·103, buffer pH 2.0, 1.5 w/v% F-127, 310.15 K, value is S×10^3, heading: Solubility SUMF·103) was 2050 ± 40 µM (≈ 979 µg/mL). It also gave a solubility at 3 days (37 °C, pH 2, aqueous with cosolvent or surfactant or cyclodextrin, thermodynamic from solid, Solubility SUMF·103, buffer pH 2.0, 4.0 w/v% F-127, 310.15 K, value is S×10^3, heading: Solubility SUMF·103) of 3990 ± 80 µM (≈ 1900 µg/mL), a solubility at 3 days (37 °C, pH 2, aqueous with cosolvent or surfactant or cyclodextrin, thermodynamic from solid, Solubility SUMF·103, buffer pH 2.0, 5.5 w/v% F-127, 310.15 K, value is S×10^3, heading: Solubility SUMF·103) of 5610 ± 40 µM (≈ 2680 µg/mL) and a solubility at 3 days (37 °C, pH 2, aqueous with cosolvent or surfactant or cyclodextrin, thermodynamic from solid, Solubility SUMF·103, buffer pH 2.0, 7.0 w/v% F-127, 310.15 K, value is S×10^3, heading: Solubility SUMF·103) of 6340 ± 30 µM (≈ 3030 µg/mL). For the same compound, the solubility at 3 days (37 °C, pH 7.4, aqueous buffer, thermodynamic from solid, buffer pH 7.4, 0 w/v% F-127, 310.15 K, value is S×10^4, read-out: Solubility SUMF·104) was 16 ± 0.1 µM (≈ 7.64 µg/mL), the solubility at 3 days (37 °C, pH 7.4, aqueous with cosolvent or surfactant or cyclodextrin, thermodynamic from solid, 7.0% F-127 + 20% EtOH, buffer pH 7.4, 310.15 K, read-out: Maximum solubility value) was 1180 µM and the solubility at 3 days (37 °C, pH 7.4, aqueous with cosolvent or surfactant or cyclodextrin, thermodynamic from solid, buffer pH 7.4 +10% EtOH, 0 w/v% F-127, 310.15 K, value is S×10^4, read-out: Solubility SUMF·104) was 18 ± 0.1 µM (≈ 8.59 µg/mL). The solubility at 3 days (37 °C, pH 7.4, aqueous with cosolvent or surfactant or cyclodextrin, thermodynamic from solid, buffer pH 7.4 +10% EtOH, 1.5 w/v% F-127, 310.15 K, value is S×10^4, read-out: Solubility SUMF·104) was 194 ± 1 µM (≈ 92.6 µg/mL), the solubility at 3 days (37 °C, pH 7.4, aqueous with cosolvent or surfactant or cyclodextrin, thermodynamic from solid, buffer pH 7.4 +10% EtOH, 4.0 w/v% F-127, 310.15 K, value is S×10^4, read-out: Solubility SUMF·104) was 477 ± 3 µM (≈ 228 µg/mL) and the solubility at 3 days (37 °C, pH 7.4, aqueous with cosolvent or surfactant or cyclodextrin, thermodynamic from solid, buffer pH 7.4 +10% EtOH, 5.5 w/v% F-127, 310.15 K, value is S×10^4, read-out: Solubility SUMF·104) was 689 ± 7 µM (≈ 329 µg/mL). The solubility at 3 days (37 °C, pH 7.4, aqueous with cosolvent or surfactant or cyclodextrin, thermodynamic from solid, buffer pH 7.4 +10% EtOH, 7.0 w/v% F-127, 310.15 K, value is S×10^4, read-out: Solubility SUMF·104) was 806 ± 7 µM (≈ 385 µg/mL), the solubility at 3 days (37 °C, pH 7.4, aqueous with cosolvent or surfactant or cyclodextrin, thermodynamic from solid, buffer pH 7.4 +20% EtOH, 0 w/v% F-127, 310.15 K, value is S×10^4, read-out: Solubility SUMF·104) was 30 ± 1 µM (≈ 14.3 µg/mL) and the solubility at 3 days (37 °C, pH 7.4, aqueous with cosolvent or surfactant or cyclodextrin, thermodynamic from solid, buffer pH 7.4 +20% EtOH, 1.5 w/v% F-127, 310.15 K, value is S×10^4, read-out: Solubility SUMF·104) was 276 ± 3 µM (≈ 132 µg/mL). For the same compound, the solubility at 3 days (37 °C, pH 7.4, aqueous with cosolvent or surfactant or cyclodextrin, thermodynamic from solid, buffer pH 7.4 +20% EtOH, 4.0 w/v% F-127, 310.15 K, value is S×10^4, read-out: Solubility SUMF·104) was 700 ± 5 µM (≈ 334 µg/mL), the solubility at 3 days (37 °C, pH 7.4, aqueous with cosolvent or surfactant or cyclodextrin, thermodynamic from solid, buffer pH 7.4 +20% EtOH, 5.5 w/v% F-127, 310.15 K, value is S×10^4, read-out: Solubility SUMF·104) was 983 ± 11 µM (≈ 469 µg/mL) and the solubility at 3 days (37 °C, pH 7.4, aqueous with cosolvent or surfactant or cyclodextrin, thermodynamic from solid, buffer pH 7.4, 1.5 w/v% F-127, 310.15 K, value is S×10^4, read-out: Solubility SUMF·104) was 174 ± 3 µM (≈ 83.1 µg/mL). It also gave a solubility at 3 days (37 °C, pH 7.4, aqueous with cosolvent or surfactant or cyclodextrin, thermodynamic from solid, buffer pH 7.4, 4.0 w/v% F-127, 310.15 K, value is S×10^4, read-out: Solubility SUMF·104) of 393 ± 3 µM (≈ 188 µg/mL), a solubility at 3 days (37 °C, pH 7.4, aqueous with cosolvent or surfactant or cyclodextrin, thermodynamic from solid, buffer pH 7.4, 5.5 w/v% F-127, 310.15 K, value is S×10^4, read-out: Solubility SUMF·104) of 586 ± 2 µM (≈ 280 µg/mL) and a solubility at 3 days (37 °C, pH 7.4, aqueous with cosolvent or surfactant or cyclodextrin, thermodynamic from solid, buffer pH 7.4, 7.0 w/v% F-127, 310.15 K, value is S×10^4, read-out: Solubility SUMF·104) of 696 ± 4 µM (≈ 332 µg/mL). For the same compound, the solubility at 3 days (pH 7.4, pH 7.4, 310.15 K, read-out: Solubility in pure buffer) was 15.8 µM (≈ 7.54 µg/mL), the “Solubility enhancement by 7.0% F-127” value (buffer pH 2.0, vs without F-127) was 8.9 fold and the “Solubility enhancement by 7.0% F-127” value (buffer pH 7.4 + 10% EtOH, vs without F-127) was 44.8 fold. The “Solubility enhancement by 7.0% F-127” value (buffer pH 7.4 + 20% EtOH, vs without F-127) was 39.3 fold and the “Solubility enhancement by 7.0% F-127” value (buffer pH 7.4, vs without F-127) was 43.5 fold.

From publication PMC9959244, “Revisiting the Solubility–Permeability Relationship with Hydrophobic Drug Umifenovir in Pluronic Solutions: Impact of pH and Co-Solvent” (Pharmaceutics, 2023)
